For the assay, the target named is T1, mouse TRPM3α2 (mTRPM3) ion channel (Mus musculus, UniProt J9SQF3).
T1 construct: expressed in transfected cells; host or cells: flip-in HEK293
T1 sequence (J9SQF3 1-1709 isoform J9SQF3-12): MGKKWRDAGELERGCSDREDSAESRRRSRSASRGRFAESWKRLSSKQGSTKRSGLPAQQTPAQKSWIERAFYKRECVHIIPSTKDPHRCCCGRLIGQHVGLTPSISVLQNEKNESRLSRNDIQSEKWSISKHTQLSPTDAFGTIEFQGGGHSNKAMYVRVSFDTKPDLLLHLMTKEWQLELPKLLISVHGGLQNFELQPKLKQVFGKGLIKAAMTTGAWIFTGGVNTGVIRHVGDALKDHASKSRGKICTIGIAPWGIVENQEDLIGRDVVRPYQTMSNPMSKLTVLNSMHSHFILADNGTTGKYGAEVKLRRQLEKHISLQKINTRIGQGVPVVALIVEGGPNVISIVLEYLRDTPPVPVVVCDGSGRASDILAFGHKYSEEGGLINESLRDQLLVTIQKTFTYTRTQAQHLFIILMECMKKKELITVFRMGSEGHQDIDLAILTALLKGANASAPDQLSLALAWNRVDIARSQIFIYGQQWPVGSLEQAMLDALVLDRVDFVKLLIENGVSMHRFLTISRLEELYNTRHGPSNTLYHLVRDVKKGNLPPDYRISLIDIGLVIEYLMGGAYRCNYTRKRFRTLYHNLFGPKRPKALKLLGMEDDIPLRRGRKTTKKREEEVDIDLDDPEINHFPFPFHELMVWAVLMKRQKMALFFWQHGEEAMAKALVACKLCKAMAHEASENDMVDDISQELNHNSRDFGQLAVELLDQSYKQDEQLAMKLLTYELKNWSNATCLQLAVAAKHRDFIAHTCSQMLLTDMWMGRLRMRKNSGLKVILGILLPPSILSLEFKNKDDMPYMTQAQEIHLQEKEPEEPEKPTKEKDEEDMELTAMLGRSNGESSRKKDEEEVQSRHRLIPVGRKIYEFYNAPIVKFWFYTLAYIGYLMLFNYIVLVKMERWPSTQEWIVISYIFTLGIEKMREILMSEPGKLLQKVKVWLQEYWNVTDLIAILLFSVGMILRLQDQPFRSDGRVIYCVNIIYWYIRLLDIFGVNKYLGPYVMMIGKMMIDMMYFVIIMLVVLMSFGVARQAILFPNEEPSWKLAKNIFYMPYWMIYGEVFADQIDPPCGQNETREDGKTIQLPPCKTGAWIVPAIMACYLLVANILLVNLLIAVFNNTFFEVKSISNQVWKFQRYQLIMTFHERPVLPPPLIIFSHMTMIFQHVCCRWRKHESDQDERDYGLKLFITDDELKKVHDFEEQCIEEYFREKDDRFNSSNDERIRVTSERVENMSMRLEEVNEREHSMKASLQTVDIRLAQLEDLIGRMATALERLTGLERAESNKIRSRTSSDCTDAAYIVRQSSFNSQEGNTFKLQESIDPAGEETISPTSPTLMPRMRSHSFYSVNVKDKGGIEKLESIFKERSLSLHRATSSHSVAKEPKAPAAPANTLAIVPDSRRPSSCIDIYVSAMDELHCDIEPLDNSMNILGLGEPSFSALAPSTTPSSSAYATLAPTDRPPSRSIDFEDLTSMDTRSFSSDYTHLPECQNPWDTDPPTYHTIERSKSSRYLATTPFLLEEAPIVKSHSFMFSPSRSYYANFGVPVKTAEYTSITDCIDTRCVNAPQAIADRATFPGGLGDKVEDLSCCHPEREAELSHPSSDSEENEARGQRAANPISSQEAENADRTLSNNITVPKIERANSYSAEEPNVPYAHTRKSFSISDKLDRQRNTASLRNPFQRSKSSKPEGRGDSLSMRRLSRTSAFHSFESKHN
Put plainly: TRPM3 ion channel driven Ca2+ uptake, Fluo-4 AM assay, mTRPM3alpha2 overexpressing flip-in HEK293 cells stimulated with pregnenolone sulfate (50 μM). As to conditions: mTRPM3 overexpressing HEK293 cells stimulated with pregnenolone sulfate (50 μM), activity ranges A, B, C. In kind it is cell-based. The essentials:
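Ca2+ influx via mouse TRPM3α2 was opened with pregnenolone sulfate (50 μM) and tracked by Fluo-4 AM fluorescence at 485/535 nm, read directly after adding about 2000 stably transfected HEK293 cells per well to compound. IC50 values come from percent inhibition scaled to vehicle and positive-control inhibitor signals.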
For the compound `Cn1nc2ccc(OCc3ccccn3)cc2c1C(=O)NCC(F)(F)F` [Cpd 204, 2-methyl-5-[(pyridin-2-yl)methoxy]-N-(2,2,2-trifluoroethyl)-2H-indazole-3-carboxamide], the IC50 is greater than 20 µM.
Compound `C[C@@H](NC(=O)c1c2cc(OCc3ccccc3F)ccc2nn1C)C(N)=O` [Cpd 098, (2R)-2-({5-[(2-fluorophenyl)methoxy]-2-methyl-2H-indazol-3-yl}formamido)propanamide] had an IC50 of 1 to 20 µM.
`Cn1nccc1COc1ccc2nn(C)c(C(=O)NC3COCC3O)c2c1` (single isomer, unassigned) [Cpd 056 - Dia2]: the IC50 was greater than 20 µM.
On to `Cn1nc2ccc(OCc3ccccn3)cc2c1C(=O)NC(CO)CC(F)F` (single isomer, unassigned) [Cpd 228 - En2], for which the IC50 was greater than 20 µM.
Compound `Cc1ncc(COc2ccc3nn(C)c(C(=O)NC(C)(CO)C(N)=O)c3c2)o1` (single isomer, unassigned) [Cpd 179 - En2] returned an IC50 of less than 1 µM.
As for `Cc1ncsc1COc1ccc2nn(C)c(C(=O)NC3(CO)CCNC3=O)c2c1` (single isomer, unassigned) [Cpd 163 - En2, N-[3-(hydroxymethyl)-2-oxopyrrolidin-3-yl]-2-methyl-5-[(4-methyl-1,3-thiazol-5-yl)methoxy]-2H-indazole-3-carboxamide], the IC50 is 1 to 20 µM.
`Cn1nc2ccc(OCc3ccccc3)cc2c1C(=O)NC1(C(N)=O)COC1` [Cpd 041, 5-(benzyloxy)-N-(3-carbamoyloxetan-3-yl)-2-methyl-2H-indazole-3-carboxamide] registered an IC50 of 1 to 20 µM.
As for `Cn1nc2ccc(OCC3COC3)cc2c1C(=O)NC(C)(CO)C(N)=O` (single isomer, unassigned) [Cpd 167 - En2], the figure is greater than 20 µM; as for `Cn1nc2ccc(OCc3ccccc3F)cc2c1C(=O)NC1(CO)CCOCC1` [Cpd 096, 5-[(2-fluorophenyl)methoxy]-N-[4-(hydroxymethyl)oxan-4-yl]-2-methyl-2H-indazole-3-carboxamide], 1 to 20 µM.
As for `Cc1ncsc1COc1ccc2nn(C)c(C(=O)NC(C)(CO)CC(F)F)c2c1` (single isomer, unassigned) [Cpd 182 - En1], the figure is less than 1 µM; as for `Cn1nc2ccc(OCc3ccccc3)cc2c1C(=O)NC1(C(N)=O)CCC1` [Cpd 033, 5-(benzyloxy)-N-(1-carbamoylcyclobutyl)-2-methyl-2H-indazole-3-carboxamide], 1 to 20 µM; as for `Cn1nc2ccc(OCc3ccccc3)cc2c1C(=O)NC1CCNC1=O` (centres unmarked) [Cpd 008, 5-(benzyloxy)-2-methyl-N-(2-oxopyrrolidin-3-yl)-2H-indazole-3-carboxamide], 1 to 20 µM.
Turning to `Cn1nc2ccc(OCc3ccccc3)cc2c1C(=O)NC1(CO)CCOCC1` [Cpd 074, 5-(benzyloxy)-N-[4-(hydroxymethyl)oxan-4-yl]-2-methyl-2H-indazole-3-carboxamide], the IC50 was 1 to 20 µM.
As to `Cc1ncc(COc2ccc3nn(C)c(C(=O)NC(C)(CO)C(N)=O)c3c2)s1` (single isomer, unassigned) [Cpd 157 - En1, 3-hydroxy-2-methyl-2-({2-methyl-5-[(2-methyl-1,3-thiazol-5-yl)methoxy]-2H-indazol-3-yl}formamido)propanamide], the IC50 was 1 to 20 µM.
`Cn1ccc(NC(=O)c2c3cc(OCc4ccccc4)ccc3nn2C)n1` [Cpd 014, 5-(benzyloxy)-2-methyl-N-(1-methyl-1H-pyrazol-3-yl)-2H-indazole-3-carboxamide]: the IC50 lay in the range of 1 to 20 µM.
`Cn1nc2ccc(OCc3ccccn3)cc2c1C(=O)NC(CO)c1ccccn1` (single isomer, unassigned) [Cpd 221 - En2] displayed an IC50 of 1 to 20 µM.
On to `Cn1nc2ccc(OCC3CCC3)cc2c1C(=O)NC(C)(CO)C(N)=O` (single isomer, unassigned) [Cpd 173 - En1], for which the IC50 was less than 1 µM.
Take `Cn1nc2ccc(OCc3ccccc3F)cc2c1C(=O)NC1(CO)CC1` [Cpd 095, 5-[(2-fluorophenyl)methoxy]-N-[1-(hydroxymethyl)cyclopropyl]-2-methyl-2H-indazole-3-carboxamide]: the IC50 was in the range of 1 to 20 µM.
`Cn1nccc1COc1ccc2nn(C)c(C(=O)NC(C)(CO)C(N)=O)c2c1` (single isomer, unassigned) [Cpd 154 - En2] showed an IC50 of less than 1 µM.
`Cn1ccc(NC(=O)c2c3cc(OCc4cccnc4C(F)(F)F)ccc3nn2C)n1` [Cpd 013, 2-methyl-N-(1-methyl-1H-pyrazol-3-yl)-5-{[2-(trifluoromethyl)pyridin-3-yl]methoxy}-2H-indazole-3-carboxamide]: the IC50 fell in the range of 1 to 20 µM.
For the compound `Cc1ncc(COc2ccc3nn(C)c(C(=O)NC4(CO)COC4)c3c2)s1` [Cpd 105, N-[3-(hydroxymethyl)oxetan-3-yl]-2-methyl-5-[(2-methyl-1,3-thiazol-5-yl)methoxy]-2H-indazole-3-carboxamide], the IC50 fell in the range of 1 to 20 µM.
`Cn1nc2ccc(OCc3ccccn3)cc2c1C(=O)NCC(O)CC(F)(F)F` (single isomer, unassigned) [Cpd 245 - En2] displayed a 50% inhibitory concentration (IC50) greater than 20 µM.
The compound `Cn1nc2ccc(OCc3ccccn3)cc2c1C(=O)NC1(CO)COC(C)(C)OC1` [Cpd 219, N-[5-(hydroxymethyl)-2,2-dimethyl-1,3-dioxan-5-yl]-2-methyl-5-[(pyridin-2-yl)methoxy]-2H-indazole-3-carboxamide] had a half-maximal inhibitory concentration (IC50) greater than 20 µM.
Next, `CN(C)C1(CNC(=O)c2c3cc(OCc4ccnn4C)ccc3nn2C)CCC1` [Cpd 046, N-{[1-(dimethylamino)cyclobutyl]methyl}-2-methyl-5-[(1-methyl-1H-pyrazol-5-yl)methoxy]-2H-indazole-3-carboxamide]: 1 to 20 µM.
In the case of `Cn1nccc1COc1ccc2nn(C)c(C(=O)NC3CCN(CC(F)(F)F)C3)c2c1` (centres unmarked) [Cpd 050, 2-methyl-5-[(1-methyl-1H-pyrazol-5-yl)methoxy]-N-[1-(2,2,2-trifluoroethyl)pyrrolidin-3-yl]-2H-indazole-3-carboxamide], the IC50 was in the range of 1 to 20 µM.
Next, `Cc1ncsc1COc1ccc2nn(C)c(C(=O)NC(C)(CO)C(=O)N(C)C)c2c1` (single isomer, unassigned) [Cpd 184 - En2]: 1 to 20 µM; `Cn1nc2ccc(OCc3ccccc3F)cc2c1C(=O)NC(C)(CO)C(N)=O` (single isomer, unassigned) [Cpd 194 - En2]: less than 1 µM.
Compound `Cn1nc2ccc(OCc3ccccn3)cc2c1C(=O)NC1(CO)CC(F)(F)C1` [Cpd 217, N-[3,3-difluoro-1-(hydroxymethyl)cyclobutyl]-2-methyl-5-[(pyridin-2-yl)methoxy]-2H-indazole-3-carboxamide] yielded an IC50 of 1 to 20 µM.
`Cn1nccc1COc1ccc2nn(C)c(C(=O)NCC(C)(C)N3CCOCC3)c2c1` [Cpd 049, 2-methyl-5-[(1-methyl-1H-pyrazol-5-yl)methoxy]-N-[2-methyl-2-(morpholin-4-yl)propyl]-2H-indazole-3-carboxamide] yielded an IC50 greater than 20 µM.
The compound `Cc1ncsc1COc1ccc2nn(C)c(C(=O)NC3COCC3O)c2c1` (single isomer, unassigned) [Cpd 080 - Dia1] came in with an IC50 of 1 to 20 µM.
With `O=C1NCCn2nc3ccc(OCc4ccccc4)cc3c21` [Cpd 257, 9-(benzyloxy)-1H,2H,3H,4H-pyrazino[1,2-b]indazol-1-one], the IC50 was greater than 20 µM.
Compound `Cc1ncsc1COc1ccc2nn(C)c(C(=O)NC3CN(C)CC3(F)F)c2c1` (centres unmarked) [Cpd 032, N-(4,4-difluoro-1-methylpyrrolidin-3-yl)-2-methyl-5-[(4-methyl-1,3-thiazol-5-yl)methoxy]-2H-indazole-3-carboxamide] came in with an IC50 of 1 to 20 µM.
Compound `Cc1ccc(COc2ccc3nn(C)c(C(=O)NC4(C(N)=O)CCOC4)c3c2)cn1` (single isomer, unassigned) [Cpd 164 - En2, N-(3-carbamoyloxolan-3-yl)-2-methyl-5-[(6-methylpyridin-3-yl)methoxy]-2H-indazole-3-carboxamide] displayed an IC50 of 1 to 20 µM.
Next, `Cn1nccc1COc1ccc2nn(C)c(C(=O)NC(C)(C)CO)c2c1` [Cpd 015, N-(1-hydroxy-2-methylpropan-2-yl)-2-methyl-5-[(1-methyl-1H-pyrazol-5-yl)methoxy]-2H-indazole-3-carboxamide]: 1 to 20 µM; `Cn1nc2ccc(OCc3ccccn3)cc2c1C(=O)NC(C)(CO)C(N)=O` (single isomer, unassigned) [Cpd 162 - En2]: less than 1 µM; `Cn1nc2ccc(OCc3ccccn3)cc2c1C(=O)NC(CO)(CCF)C(N)=O` (centres unmarked) [Cpd 234, 4-fluoro-2-(hydroxymethyl)-2-({2-methyl-5-[(pyridin-2-yl)methoxy]-2H-indazol-3-yl}formamido)butanamide]: less than 1 µM.
Regarding `Cc1ncsc1COc1ccc2nn(C)c(C(=O)NC3CCNC3)c2c1` (single isomer, unassigned) [Cpd 215 - En2], the IC50 is 1 to 20 µM.
`Cn1nccc1COc1ccc2nn(C)c(C(=O)NC3(CCO)CCC3)c2c1` [Cpd 079, N-[1-(2-hydroxyethyl)cyclobutyl]-2-methyl-5-[(1-methyl-1H-pyrazol-5-yl)methoxy]-2H-indazole-3-carboxamide] showed a half-inhibitory concentration (IC50) greater than 20 µM.
As for `Cc1ncsc1COc1ccc2nn(C)c(C(=O)N[C@@H](C)C(N)=O)c2c1` [Cpd 101, (2S)-2-({2-methyl-5-[(4-methyl-1,3-thiazol-5-yl)methoxy]-2H-indazol-3-yl}formamido)propanamide], the IC50 was 1 to 20 µM.
As for `Cn1nccc1COc1ccc2nn(C)c(C(=O)NC3(C(N)=O)CCC3)c2c1` [Cpd 061, N-(1-carbamoylcyclobutyl)-2-methyl-5-[(1-methyl-1H-pyrazol-5-yl)methoxy]-2H-indazole-3-carboxamide], the figure is 1 to 20 µM.
In turn, `Cn1nc2ccc(OCc3ccccn3)cc2c1C(=O)NC1CNCCC1(F)F` (single isomer, unassigned) [Cpd 212 - En1, N-(4,4-difluoropiperidin-3-yl)-2-methyl-5-[(pyridin-2-yl)methoxy]-2H-indazole-3-carboxamide] returned an IC50 of 1 to 20 µM.

What is called IC50 is the point on the concentration scale where inhibition reaches its midpoint. Lower therefore signals inhibition by little substance.

The record behind these values is US20250376461A1, “INDAZOLE DERIVATIVES FOR TREATING TRPM3-MEDIATED DISORDERS” (Katholieke Universiteit Leuven, priority 2022, published 2025).
